Broadly, the EC50 is the concentration giving half of the maximal effect.

Where only a bound is given, the exact number is not on record here.

One experiment has as its system primary human lung fibroblasts and primary rodent HSCs. The experiment is described as follows: High content imaging assay (α-SMA staining, cell morphology) of fibroblast to myofibroblast transdifferentiation, confirmed by Western blot and RT-PCR. The settings on record: Homo sapiens, Fibroblast; imaging and western based activity. An excerpt:
High content imaging assays have been established, using primary human lung fibroblasts and primary rodent HSCs, that enable the identification of small molecules that either inhibit myofibroblast formation/activation or induce the reversion of activated myofibroblasts to a quiescent fibroblast state. Conditions, involving serum starvation and subsequent TGF-β treatment, have been identified that facilitate robust in vitro transdifferentiation in a miniaturized (384 well plate) format that is amenable to high throughput small molecule screening. The inhibition assay is based on α-SMA immunofluorescent staining and cell morphology changes associated with fibroblast to myofibroblast transdifferentiation, Using the selective ALK-5 TGF-β1 receptor inhibitor ([…]) as a positive control, the inhibition assay has been used to initiate a screen of a collection of ˜100,000 small molecules that consists of bioactive small molecules and a diversity set that has been assembled based on 2D and 3D structural diversity and inherent “drug-likeness” properties. Preliminary screening led to the identification of multiple previously identified anti-fibrotic molecules.
A high content imaging assay, based on α-SMA staining and cell morphological changes associated with fibroblast to myofibroblast transdifferentiation, was established using primary human lung fibroblasts and primary rodent HSCs. Conditions, involving serum starvation and subsequent TGF-β treatment, were identified that facilitate robust in vitro transdifferentiation in a miniaturized (384 well plate) format that is amenable to high throughput small molecule screening. A selective ALK-5 TGF-β1 receptor inhibitor (SB-431542) was used as a positive control. […] This assay was used to evaluate compounds of Formula (I), (Ia), (II), (IIa), (III), (IIIa), (IV), (IVa), (IVb), (V), (Va), (VI), (VIa), (VIb), (VIc), (VII), (VIIa), (VIII), (VIIIa), (IX), (IXa), (X), or (Xa) generated from medicinal chemistry efforts.
The activity of Itraconazole and compounds of Formula (I), (Ia), (II), (IIa), (III), (IIIa), (IV), (IVa), (IVb), (V), (Va), (VI), (VIa), (VIb), (VIc), (VII), (VIIa), (VIII), (VIIIa), (IX), (IXa), (X), or (Xa) was confirmed by analyzing changes in gene expression of multiple genes associated with fibroblast to myofibroblast transdifferentiation using biochemical methods (i.e., Western blot and RT-PCR). These 4-day assays were used to evaluate sets of 6 compounds at a time in 4-point dose response fashion.
The EC50 for (imaging and western based) activity is graded as: +++=<500 nM; ++=500 nM to 5 μM; +=5 to 30 μM); −=>30 μM; NT=Not Tested.
(In western blotting, separated proteins are transferred to a membrane and probed.)
Regarding `CCC(C)n1ncn(-c2ccc(N3CCN(c4ccc(OC[C@@H]5CO[C@](Cc6ccnnc6)(c6ccc(C(F)(F)F)cc6)O5)cc4)CC3)cc2)c1=O` (some centres unmarked) [Compound 114], the EC50 is below 0.5 µM.
The same measure, in the same setting: the result for `O=c1n(-c2ccc(N3CCN(c4ccc(OC[C@H]5CO[C@](Cn6nccn6)(c6ccccc6)C5)cc4F)CC3)cc2)cnn1CC1CCCC1` [Compound 145] reads 5 to 30 µM; that for `CCC(C)n1ncn(-c2ccc(N3CCN(c4ccc(OC[C@@H]5CO[C@@](CCn6nccn6)(c6ccc(Cl)cc6Cl)O5)cc4)CC3)cc2)c1=O` (some centres unmarked) [Compound 52], below 0.5 µM.
Same read-out and setting: the result for `CC(C)n1ncn(-c2ccc(N3CCN(c4ccc(OC[C@@H]5CO[C@@](Cn6nccn6)(c6ccccc6)O5)cc4)CC3)cc2)c1=O` [Compound 18] reads 5 to 30 µM; that for `CCC(C)n1ncn(-c2ccc(N3CCN(c4ccc(OC[C@@H]5CO[C@@](Cn6cccn6)(c6cccc(Cl)c6)O5)cc4)CC3)cc2)c1=O` (some centres unmarked) [Compound 82], below 0.5 µM.
`O=c1n(-c2ccc(N3CCN(c4ccc(OC[C@@H]5CO[C@@](Cn6nccn6)(c6ccccc6)O5)cc4F)CC3)cc2)cnn1CC1CCCC1` [Compound 157] had an EC50 below 0.5 µM.
Same read-out and setting: the result for `CC[C@H](C)n1ncn(-c2ccc(N3CCN(c4ccc(OC[C@H]5CO[C@](Cn6cccn6)(c6ccc(C#N)cc6C)O5)cc4)CC3)cc2)c1=O` [Compound 174] reads 0.5 to 5 µM.
In the case of `CCC(C)n1ncn(-c2ccc(N3CCN(c4ccc(OC[C@@H]5CO[C@@](Cn6cccn6)(c6cccc(C#N)c6)O5)cc4)CC3)cc2)c1=O` (some centres unmarked) [Compound 88], the EC50 fell in the range of 0.5 to 5 µM.
Same read-out and setting: the result for `CCC(C)n1ncn(-c2ccc(N3CCN(c4ccc(OC[C@@H]5CO[C@@](Cn6ccc(=O)cc6)(c6ccc(Cl)cc6Cl)O5)cc4)CC3)cc2)c1=O` (some centres unmarked) [Compound 41] reads below 0.5 µM; that for `CCC(CC)n1ncn(-c2ccc(N3CCN(c4ccc(OC[C@@H]5CO[C@@](Cn6cccn6)(c6ccc(C#N)cc6C)O5)cc4)CC3)cc2)c1=O` [Compound 176], below 0.5 µM; that for `CCC(C)n1ncn(-c2ccc(N3CCN(c4ccc(OC[C@@H]5CO[C@@](Cn6nccn6)(c6ccccc6)O5)c(CN)c4)CC3)cc2)c1=O` (some centres unmarked) [Compound 68], below 0.5 µM.
Compound `CCC(C)n1ncn(-c2ccc(N3CCN(c4ccc(OC[C@@H]5CO[C@@](Cn6nccn6)(c6cc(C#N)ccc6C)O5)cc4)CC3)cc2)c1=O` (some centres unmarked) [Compound 28] displayed an EC50 of 5 to 30 µM.
`CCC(CC)n1ncn(-c2ccc(N3CCN(c4ccc(OC[C@H]5CO[C@](Cn6nccn6)(c6ccccc6)O5)cc4)CC3)cc2)c1=O` [Compound 160] had an EC50 below 0.5 µM.
On the same count and under the same terms, the result for `CC[C@@H](C)n1ncn(-c2ccc(N3CCN(c4ccc(OC[C@H]5CO[C@](Cn6cccn6)(c6ccccc6)O5)cc4)CC3)cc2)c1=O` [Compound 171] reads below 0.5 µM.
For the compound `CCC(CC)n1ncn(-c2ccc(N3CCN(c4ccc(OC[C@@H]5CO[C@@](Cn6cccn6)(c6ccccc6)O5)cc4)CC3)cc2)c1=O` [Compound 166], the EC50 was below 0.5 µM.
The same measure, in the same setting: the result for `CCC(C)n1ncn(-c2ccc(N3CCN(c4ccc(OC(C)[C@@H]5CO[C@@](Cn6nccn6)(c6ccccc6)O5)cc4)CC3)cc2)c1=O` (some centres unmarked) [Compound 140] reads 5 to 30 µM; that for `CC[C@@H](C)n1ncn(-c2ccc(N3CCN(c4ccc(OC[C@@H]5CO[C@@](Cn6nccn6)(c6ccccc6)O5)cc4)CC3)cc2)c1=O` [Compound 179, 4-(4-(4-(4-(((2S,4R)-2-((2H-1,2,3-triazol-2-yl)methyl)-2-phenyl-1,3-dioxolan-4-yl)methoxy)phenyl)piperazin-1-yl)phenyl)-(R)-1-sec-butyl-1H-1,2,4-triazol-5(4H)-one], below 0.5 µM.
The same measure, in the same setting: the result for `CCC(C)n1ncn(-c2ccc(N3CCN(c4ccc(OC[C@@H]5CO[C@](CN6CCOCC6)(c6ccc(Cl)cc6Cl)O5)cc4)CC3)cc2)c1=O` (some centres unmarked) [Compound 45] reads above 30 µM; that for `CCC(C)n1ncn(-c2ccc(N3CCN(c4ccc(OC[C@@H]5CO[C@@](Cn6nccn6)(c6ccc(C#N)cc6Cl)O5)cc4)CC3)cc2)c1=O` (some centres unmarked) [Compound 26], 5 to 30 µM.
On the same count and under the same terms, the result for `CCC(CC)n1ncn(-c2ccc(N3CCN(c4ccc(OC[C@@H]5CO[C@@](Cn6nccn6)(c6ccccc6)O5)cc4C#N)CC3)cc2)c1=O` [Compound 155] reads below 0.5 µM.
As to `CCC(C)n1ncn(-c2ccc(N3CCN(c4ccc(OC[C@@H]5CO[C@@](Cc6ccnnc6)(c6ccc(C)cc6)O5)cc4)CC3)cc2)c1=O` (some centres unmarked) [Compound 138], the EC50 was below 0.5 µM.
Still for that read-out and setting: the result for `CCC(C)n1ncn(-c2ccc(N3CCN(c4ccc(OC[C@@H]5CO[C@](Cc6ccnnc6)(c6cccc(Cl)c6)O5)cc4)CC3)cc2)c1=O` (some centres unmarked) [Compound 104] reads 0.5 to 5 µM; that for `CCC(C)n1ncn(-c2ccc(N3CCN(c4ccc(OC[C@@H]5CO[C@@](Cn6nccn6)(c6ccccc6)C5)cc4)CC3)cc2)c1=O` (some centres unmarked) [Compound 143], 5 to 30 µM.
Still for that read-out and setting: the result for `CCC(C)n1ncn(-c2ccc(N3CCN(c4ccc(OC[C@@H]5CO[C@@](Cc6ccnnc6)(c6ccc(C(F)(F)F)cc6)O5)cc4)CC3)cc2)c1=O` (some centres unmarked) [Compound 134] reads below 0.5 µM; that for `CCC(CC)n1ncn(-c2ccc(N3CCN(c4ccc(OC[C@H]5CO[C@](Cn6nccn6)(c6ccccc6)C5)cc4C#N)CC3)cc2)c1=O` [Compound 144], above 30 µM.
In the case of `CCC(C)n1ncn(-c2ccc(N3CCN(c4ccc(OC[C@@H]5CO[C@](Cc6ccnnc6)(c6cccc(C)c6)O5)cc4)CC3)cc2)c1=O` (some centres unmarked) [Compound 117], the EC50 fell in the range of 0.5 to 5 µM.
Turning to `CCC(C)n1ncn(-c2ccc(N3CCN(c4cc(F)c(OC[C@@H]5CO[C@@](Cn6nccn6)(c6ccccc6)O5)c(F)c4)CC3)cc2)c1=O` (some centres unmarked) [Compound 62], the EC50 fell in the range of 5 to 30 µM.
Same read-out and setting: the result for `C#CCCCn1ncn(-c2ccc(N3CCN(c4ccc(OC[C@@H]5CO[C@@](Cn6cncn6)(c6ccc(N=[N+]=[N-])cc6)O5)cc4)CC3)cc2)c1=O` [Compound 191] reads 0.5 to 5 µM; that for `CC[C@@H](C)n1ncn(-c2ccc(N3CCN(c4ccc(OC[C@@H]5CO[C@@](Cn6cccn6)(c6ccccc6)O5)cc4)CC3)cc2)c1=O` [Compound 169], below 0.5 µM; that for `CCC(CC)n1ncn(-c2ccc(N3CCN(c4ccc(OC[C@@H]5CO[C@@](Cn6nccn6)(c6ccc(Cl)cc6Cl)O5)cc4)CC3)cc2)c1=O` [Compound 13], 0.5 to 5 µM.
`CCC(C)n1ncn(-c2ccc(N3CCN(c4ccc(OC[C@@H]5CO[C@@](Cn6nccn6)(c6ccc(Cl)cc6Cl)O5)cc4)CC3)c(F)c2)c1=O` (some centres unmarked) [Compound 69] displayed an EC50 of 0.5 to 5 µM.
Regarding `CC[C@H](C)n1ncn(-c2ccc(N3CCN(c4ccc(OC[C@@H]5CO[C@](Cn6nccn6)(c6ccccc6)O5)cc4)CC3)cc2)c1=O` [Compound 190], the EC50 fell in the range of 0.5 to 5 µM.
Turning to `CC[C@@H](C)n1ncn(-c2ccc(N3CCN(c4ccc(OC[C@H]5CO[C@](Cn6nccn6)(c6ccccc6)O5)cc4)CC3)cc2)c1=O` [Compound 182, 4-(4-(4-(4-(((2R,4S)-2-((2H-1,2,3-triazol-2-yl)methyl)-2-phenyl-1,3-dioxolan-4-yl)methoxy)phenyl)piperazin-1-yl)phenyl)-(R)-1-sec-butyl-1H-1,2,4-triazol-5(4H)-one], the EC50 was below 0.5 µM.
The compound `CCC(C)n1ncn(-c2ccc(N3CCN(c4ccc(OC[C@@H]5CO[C@@](Cc6ccnnc6)(c6ccccc6OC)O5)cc4)CC3)cc2)c1=O` (some centres unmarked) [Compound 127] came in with an EC50 below 0.5 µM.

The same experiment, now with this note: imaging and western based activity.
In turn, `CCC(C)n1ncn(-c2ccc(N3CCN(c4ccc(OC[C@@H]5CO[C@](Cn6nccn6)(c6ccccc6)O5)cc4)CC3)cc2)c1=O` (some centres unmarked) [Compound 187] returned an EC50 of 5 to 30 µM.

The values above are taken from patent publication US10336735B2, “Small molecule inhibitors of fibrosis” (THE CALIFORNIA INSTITUTE FOR BIOMEDICAL RESEARCH, priority 2014, dated 2019).
